Test results as given in patent US8053460B2, “Indole derivatives having antitumor activity” (Sigma-Tau Industrie Farmaceutiche Riunite S.p.A., priority 2005, dated 2011).
Like-named read-outs stand apart in the source and are kept apart here.

Key:
Assay type in all cases: cell-based
[1] = test system: NB4 human promyelocytic leukaemia cells; assay: Cytotoxicity (sulphorodamine B) on NB4 tumour cells
Protocol: (§1) To test the effects of the compounds on cell growth, NB4 human promyelocytic leukaemia, NCI-H460 non-small cell carcinoma cells and HCT-116 human colon carcinoma cells were used. NB4 and NCI-H460 tumour cells were grown RPMI 1640 containing 10% fetal bovine serum (GIBCO), whereas HCT-116 tumour cells were grown in McCoy's 5A containing 10% fetal bovine serum (GIBCO).
(§2) Tumour cells were seeded in 96-well tissue culture plates (Corning) at approximately 10% confluence and were allowed to attach and recover for at least 24 h. Varying concentrations of the drugs were then added to each well to calculate their IC50 value (the concentration which inhibits the 50% of cell survival). The plates were incubated for 24 h at 37° C. At the end of the treatment, for NB4 tumour cells in suspension, the procedure was performed as follows: medium culture was removed by centrifugation of the plates at 1600×g for 10 min and the surnatant was removed. 250 μl PBS were added, then the plates were centrifuged at 1600×g for 10 min, the surnatant was removed. 200 μl/well of medium culture RPMI 1640 containing 10% FCS were added and the plates were incubated at 37° C. for other 48 h. The plates were centrifuged again at 1600×g for 10 min, the medium culture was removed and 200 μl PBS and 50 μl of cold 80% TCA were added. The plates were incubated on ice for at least 1 h. TCA was removed, the plates were washed 3 times for immersion in distilled-water and dried on paper and at 40° C. for 5 min. Then 200 μl of 0.4% sulphorodamine B in 1% acetic acid were added. The plates were incubated at room temperature for other 30 min. Sulphorodamine B was removed, the plates were washed for immersion in 1% acetic acid for 3 times, then they were dried on paper and at 40° C. for 5 min. Then 200 μl Tris 10 mM were added, the plates were kept under stirring for 20 min. The survival cell was determined as optical density by a Multiskan spectrofluorimeter at 540 nm. For the tumour cells in adhesion (NCI-H460 and HCT-116), the procedure was as above mentioned, except that at the end of the treatment, the plates were washed by remotion of the surnatant and addition of PBS 3 times without centrifugation. Also the last day of the assay, the surnatant was removed without centrifugation.
(§3) The amount of cells killed was calculated as the percentage decrease in sulphorodamine B binding compared with control cultures. The IC50 values (the concentration which inhibits the 50% of cell survival) were calculated with the “ALLFIT” program.

[2] = test system: NCI-H460 non-small cell carcinoma cells; assay: Cytotoxicity (sulphorodamine B) on NCI-H460 tumour cells; conditions: Homo sapiens
Protocol: as §1, §2, §3

[3] = test system: HCT-116 human colon carcinoma cells; assay: Cytotoxicity (sulphorodamine B) on HCT-116 tumour cells; conditions: HCT-116 cells, 24 h treatment then 48 h recovery, read-out: HCT-116 IC50 ± SD
Protocol: as §1, §2, §3

[4] = Homo sapiens, NB-4, NB4 cells, 24 h treatment then 48 h recovery, sulphorodamine B, read-out: NB4 IC50 ± SD
[5] = Homo sapiens, range stated jointly for NB4, NCI-H460 and HCT-116, minor cytotoxicity, read-out: IC50 values on NB4 or NCI-H460 and HCT-116 (range given)
[6] = NCI-H460 cells, 24 h treatment then 48 h recovery, sulphorodamine B, read-out: NCI-H460 IC50 ± SD
[7] = NB4 cells, 24 h treatment then 48 h recovery, sulphorodamine B, read-out: NB4 IC50 ± SD
[8] = range stated jointly for NCI-H460 non-small cell lung cancer and HCT-116 colon cancer, read-out: IC50 values on NCI-H460 and HCT-116 (range given)

Row | Structure (SMILES) | IC50 [1, 4] | IC50 [1, 5] | IC50 [2, 6] | IC50 [1, 7] | IC50 [3] | IC50 [2, 8]
1 | O=C(CCC(c1c[nH]c2ccccc12)c1c[nH]c2ccccc12)NO [ST2408, N-Hydroxy-4,4-bis-(1H-indol-3-yl)-butyramide] | 14600 ± 600 nM | 8800 to 88800 nM | 25900 ± 300 nM | – | – | –
2 | O=C(CCCCCC(c1c[nH]c2ccccc12)c1c[nH]c2ccccc12)NO [ST2741, 7,7-Bis-(1H-indol-3-yl)-heptanoic acid hydroxyamide] | 400 to 2300 nM | – | 1200 ± 100 nM | 600 ± 10 nM | 600 ± 20 nM | 600 to 5800 nM
3 | O=C(CCCC(c1c[nH]c2ccccc12)c1c[nH]c2ccccc12)NO [ST2743, 5,5-Bis-(1H-indol-3-yl)-pentanoic acid hydroxyamide] | – | 8800 to 88800 nM | 88800 ± 2800 nM | – | – | –
4 | O=C(CCCCC(c1c[nH]c2ccccc12)c1c[nH]c2ccccc12)NO [ST2754, 6,6-Bis-(1H-indol-3-yl)-hexanoic acid hydroxyamide] | – | – | 5200 ± 300 nM | – | 5800 ± 200 nM | 600 to 5800 nM
5 | O=C(C=Cc1ccc(C(c2c[nH]c3ccccc23)c2c[nH]c3ccccc23)cc1)NO [ST2887, 3-{4-[Bis-(1H-indol-3-yl)-methyl]-phenyl}-N-hydroxy-acrylamide] | 400 to 2300 nM | – | 2600 ± 300 nM | 600 ± 10 nM | 3900 ± 500 nM | 600 to 5800 nM
6 | O=C(CCCCCCC(c1c[nH]c2ccccc12)c1c[nH]c2ccccc12)NO [ST2889, 8,8-Bis-(1H-indol-3-yl)-octanoic acid hydroxyamide] | – | – | 2700 ± 200 nM | – | 3500 ± 200 nM | 600 to 5800 nM
7 | O=C(CCCCCc1c[nH]c2ccccc12)NO [ST2995, N-hydroxy-6-(1H-indol-3-yl)hexanamide] | 8800 ± 500 nM | 8800 to 88800 nM | 22000 ± 1700 nM | – | – | –
8 | COc1cccc2c(C(CCCCCC(=O)NO)c3c[nH]c4c(OC)cccc34)c[nH]c12 [ST3043, 7,7-Bis-(7-methoxy-1H-indol-3-yl)-heptanoic acid hydroxyamide] | 400 to 2300 nM | – | 550 ± 30 nM | 800 ± 10 nM | 410 ± 30 nM | 270 to 700 nM
9 | Cc1ccc2[nH]cc(C(CCCCCC(=O)NO)c3c[nH]c4ccc(C)cc34)c2c1 [ST3044, 7,7-Bis-(5-methyl-1H-indol-3-yl)-heptanoic acid hydroxyamide] | 150 nM | – | 510 ± 100 nM | – | 270 ± 10 nM | 270 to 700 nM
10 | O=C(CCCCCC(c1c[nH]c2cccc(F)c12)c1c[nH]c2cccc(F)c12)NO [ST3052, 7,7-Bis-(4-fluoro-1H-indol-3-yl)-heptanoic acid hydroxyamide] | 400 to 2300 nM | – | 700 ± 90 nM | 600 ± 90 nM | 400 ± 100 nM | 270 to 700 nM
11 | O=C(O)CCCCCC(c1c[nH]c2ccccc12)c1c[nH]c2ccccc12 [ST3127, 7,7-Bis-(1H-indol-3-yl)-heptanoic acid] | > 20000 nM | 8800 to 88800 nM | > 20000 nM | – | > 20000 nM | –
12 | O=C(CCCCCC(c1cc2ccccc2[nH]1)c1c[nH]c2ccccc12)NO (centres unmarked) [ST3292, 7-(1H-Indol-3-yl)-7-(1H-indol-2-yl)-heptanoic acid hydroxyamide] | 400 to 2300 nM | – | 820 ± 70 nM | 670 ± 10 nM | – | 600 to 5800 nM
13 | O=C(CCCCCC(C1C=Nc2ccc(CN3CCOCC3)cc21)C1C=Nc2ccc(CN3CCOCC3)cc21)NO (centres unmarked) [ST3307, 7,7-Bis-(5-morpholin-4-ylmethyl-3H-indol-3-yl)-heptanoic acid hydroxyamide] | 400 to 2300 nM | – | 1100 ± 100 nM | 420 ± 20 nM | – | 600 to 5800 nM
